Test results: ChEMBL document CHEMBL5291721, “A preclinical secondary pharmacology resource illuminates target-adverse drug reaction associations of marketed drugs” (Nat Commun, 2023)

What was measured:
[1] = biological target: Prostaglandin G/H synthase 1 (Homo sapiens, UniProt P23219); assay type: functional
[2] = biological target: T1, 5-hydroxytryptamine receptor 1A (Homo sapiens, UniProt P08908)
T1 sequence (P08908 whole entry): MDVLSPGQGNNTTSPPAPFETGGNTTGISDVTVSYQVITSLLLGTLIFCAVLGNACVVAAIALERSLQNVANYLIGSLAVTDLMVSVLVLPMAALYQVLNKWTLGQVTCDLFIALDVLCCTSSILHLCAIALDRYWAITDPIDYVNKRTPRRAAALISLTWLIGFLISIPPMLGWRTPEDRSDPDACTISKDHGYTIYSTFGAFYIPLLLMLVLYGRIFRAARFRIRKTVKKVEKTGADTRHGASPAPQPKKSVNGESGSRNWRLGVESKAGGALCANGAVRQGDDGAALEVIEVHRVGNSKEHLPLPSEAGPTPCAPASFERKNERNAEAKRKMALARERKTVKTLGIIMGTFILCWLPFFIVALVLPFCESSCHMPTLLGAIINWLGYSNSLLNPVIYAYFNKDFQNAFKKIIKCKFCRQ

[3] = biological target: Sodium-dependent dopamine transporter (Homo sapiens, UniProt Q01959)
Sequence of Sodium-dependent dopamine transporter (Q01959 whole entry): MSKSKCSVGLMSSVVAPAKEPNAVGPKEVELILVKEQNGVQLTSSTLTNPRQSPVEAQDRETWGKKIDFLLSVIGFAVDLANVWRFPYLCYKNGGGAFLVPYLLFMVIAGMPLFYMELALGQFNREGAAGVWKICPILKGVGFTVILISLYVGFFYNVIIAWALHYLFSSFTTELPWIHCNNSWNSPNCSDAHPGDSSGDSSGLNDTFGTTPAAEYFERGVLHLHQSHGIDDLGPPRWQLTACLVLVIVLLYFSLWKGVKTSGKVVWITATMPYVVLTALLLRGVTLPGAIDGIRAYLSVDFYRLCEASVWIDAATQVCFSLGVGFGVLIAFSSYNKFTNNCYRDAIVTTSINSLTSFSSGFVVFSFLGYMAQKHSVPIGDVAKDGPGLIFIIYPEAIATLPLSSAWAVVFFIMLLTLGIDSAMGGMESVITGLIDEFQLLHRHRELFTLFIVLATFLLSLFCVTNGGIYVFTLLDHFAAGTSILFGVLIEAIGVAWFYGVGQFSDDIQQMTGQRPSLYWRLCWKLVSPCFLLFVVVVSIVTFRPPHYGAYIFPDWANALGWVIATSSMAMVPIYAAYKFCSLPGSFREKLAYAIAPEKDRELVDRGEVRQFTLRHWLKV

[4] = biological target: Voltage-gated inwardly rectifying potassium channel KCNH2 (Homo sapiens, UniProt Q12809); assay type: functional; settings: read-out: AC50
Sequence of Voltage-gated inwardly rectifying potassium channel KCNH2 (Q12809 whole entry): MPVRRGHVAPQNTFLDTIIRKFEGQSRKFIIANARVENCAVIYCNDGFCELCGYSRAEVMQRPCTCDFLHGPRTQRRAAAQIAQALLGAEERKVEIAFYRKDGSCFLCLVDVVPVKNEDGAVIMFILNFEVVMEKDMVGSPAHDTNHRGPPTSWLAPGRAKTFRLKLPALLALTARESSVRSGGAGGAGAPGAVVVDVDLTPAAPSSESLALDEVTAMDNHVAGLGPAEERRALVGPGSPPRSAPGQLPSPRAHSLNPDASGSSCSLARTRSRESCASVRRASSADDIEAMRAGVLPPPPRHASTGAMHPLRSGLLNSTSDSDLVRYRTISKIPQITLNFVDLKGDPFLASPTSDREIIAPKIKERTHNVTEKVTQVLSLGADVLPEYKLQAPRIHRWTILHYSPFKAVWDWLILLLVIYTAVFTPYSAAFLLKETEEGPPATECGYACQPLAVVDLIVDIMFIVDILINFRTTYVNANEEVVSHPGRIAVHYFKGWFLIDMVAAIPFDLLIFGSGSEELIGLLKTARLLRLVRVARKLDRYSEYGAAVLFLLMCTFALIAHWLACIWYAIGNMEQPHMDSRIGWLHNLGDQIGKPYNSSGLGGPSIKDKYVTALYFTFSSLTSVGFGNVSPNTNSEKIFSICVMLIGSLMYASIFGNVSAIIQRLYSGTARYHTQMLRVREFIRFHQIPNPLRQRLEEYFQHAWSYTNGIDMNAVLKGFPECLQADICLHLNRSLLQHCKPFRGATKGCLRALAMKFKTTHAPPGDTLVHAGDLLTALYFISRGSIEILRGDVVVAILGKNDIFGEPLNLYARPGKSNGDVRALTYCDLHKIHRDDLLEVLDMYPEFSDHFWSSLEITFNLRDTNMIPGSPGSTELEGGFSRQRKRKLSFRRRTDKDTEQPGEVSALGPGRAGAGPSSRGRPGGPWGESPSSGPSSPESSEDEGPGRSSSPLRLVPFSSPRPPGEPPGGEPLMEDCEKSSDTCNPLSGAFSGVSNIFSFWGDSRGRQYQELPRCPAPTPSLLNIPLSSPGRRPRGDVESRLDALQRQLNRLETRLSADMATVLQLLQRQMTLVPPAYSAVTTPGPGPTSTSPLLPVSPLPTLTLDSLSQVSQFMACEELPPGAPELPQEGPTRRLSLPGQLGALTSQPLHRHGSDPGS

[5] = biological target: T2, Muscarinic acetylcholine receptor M2 (Homo sapiens, UniProt P08172)
T2 sequence (P08172 whole entry): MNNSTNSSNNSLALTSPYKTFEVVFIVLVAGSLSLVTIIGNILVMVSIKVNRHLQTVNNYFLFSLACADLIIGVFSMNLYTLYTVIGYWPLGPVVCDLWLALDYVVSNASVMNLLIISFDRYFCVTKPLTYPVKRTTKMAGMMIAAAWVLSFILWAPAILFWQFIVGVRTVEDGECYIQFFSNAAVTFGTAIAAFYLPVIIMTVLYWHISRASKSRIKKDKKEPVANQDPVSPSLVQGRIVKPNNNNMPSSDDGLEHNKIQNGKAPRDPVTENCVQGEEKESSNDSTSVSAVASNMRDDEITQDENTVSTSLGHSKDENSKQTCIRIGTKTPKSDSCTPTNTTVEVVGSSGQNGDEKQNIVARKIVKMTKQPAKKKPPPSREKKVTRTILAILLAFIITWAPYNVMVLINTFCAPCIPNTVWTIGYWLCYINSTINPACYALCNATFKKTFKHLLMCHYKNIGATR

[6] = biological target: T3, Thromboxane A2 receptor (Homo sapiens, UniProt P21731); assay type: functional, cell-based
T3 sequence (P21731 whole entry): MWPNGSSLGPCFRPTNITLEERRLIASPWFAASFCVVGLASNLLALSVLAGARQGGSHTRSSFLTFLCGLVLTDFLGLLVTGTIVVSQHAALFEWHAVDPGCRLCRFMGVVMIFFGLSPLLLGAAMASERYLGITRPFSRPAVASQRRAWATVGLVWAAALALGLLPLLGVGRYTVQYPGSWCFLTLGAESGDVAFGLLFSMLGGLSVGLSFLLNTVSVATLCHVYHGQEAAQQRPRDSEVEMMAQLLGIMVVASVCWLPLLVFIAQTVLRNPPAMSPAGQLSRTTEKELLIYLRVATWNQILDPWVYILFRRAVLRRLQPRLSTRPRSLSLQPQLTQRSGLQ

[7] = biological target: cGMP-inhibited 3',5'-cyclic phosphodiesterase 3A (Homo sapiens, UniProt Q14432); assay type: functional
Sequence of cGMP-inhibited 3',5'-cyclic phosphodiesterase 3A (Q14432 whole entry): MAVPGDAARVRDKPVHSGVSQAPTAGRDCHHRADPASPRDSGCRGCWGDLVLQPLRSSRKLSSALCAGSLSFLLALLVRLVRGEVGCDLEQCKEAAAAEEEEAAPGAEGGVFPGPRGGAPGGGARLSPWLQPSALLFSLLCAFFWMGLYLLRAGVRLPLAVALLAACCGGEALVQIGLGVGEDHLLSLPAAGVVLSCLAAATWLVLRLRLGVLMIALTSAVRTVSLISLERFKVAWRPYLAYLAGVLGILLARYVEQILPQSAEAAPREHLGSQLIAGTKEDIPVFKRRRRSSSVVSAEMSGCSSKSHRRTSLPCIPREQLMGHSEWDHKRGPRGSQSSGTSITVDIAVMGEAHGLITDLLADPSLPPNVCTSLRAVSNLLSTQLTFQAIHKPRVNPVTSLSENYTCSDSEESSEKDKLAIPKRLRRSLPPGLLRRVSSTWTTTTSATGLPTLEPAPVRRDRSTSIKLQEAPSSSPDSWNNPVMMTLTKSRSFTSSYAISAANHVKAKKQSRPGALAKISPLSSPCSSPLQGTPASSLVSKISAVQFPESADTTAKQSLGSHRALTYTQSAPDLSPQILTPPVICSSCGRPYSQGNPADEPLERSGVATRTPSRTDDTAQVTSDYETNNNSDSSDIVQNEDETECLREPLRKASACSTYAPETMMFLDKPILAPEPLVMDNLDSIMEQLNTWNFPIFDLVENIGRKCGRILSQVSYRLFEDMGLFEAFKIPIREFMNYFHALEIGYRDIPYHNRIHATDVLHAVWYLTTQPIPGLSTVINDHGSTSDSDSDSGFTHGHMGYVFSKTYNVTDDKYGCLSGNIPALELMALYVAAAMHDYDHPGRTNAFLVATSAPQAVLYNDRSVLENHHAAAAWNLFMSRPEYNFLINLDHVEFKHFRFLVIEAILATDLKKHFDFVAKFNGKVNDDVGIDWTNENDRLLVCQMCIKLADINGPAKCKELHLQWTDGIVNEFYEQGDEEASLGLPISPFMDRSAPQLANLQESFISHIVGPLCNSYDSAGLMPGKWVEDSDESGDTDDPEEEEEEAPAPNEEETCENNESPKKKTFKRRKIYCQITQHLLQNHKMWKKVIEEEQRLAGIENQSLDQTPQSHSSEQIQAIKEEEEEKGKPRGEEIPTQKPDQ

[8] = biological target: T4, Alpha-1A adrenergic receptor (Homo sapiens, UniProt P35348); assay type: functional, cell-based
T4 sequence (P35348 whole entry): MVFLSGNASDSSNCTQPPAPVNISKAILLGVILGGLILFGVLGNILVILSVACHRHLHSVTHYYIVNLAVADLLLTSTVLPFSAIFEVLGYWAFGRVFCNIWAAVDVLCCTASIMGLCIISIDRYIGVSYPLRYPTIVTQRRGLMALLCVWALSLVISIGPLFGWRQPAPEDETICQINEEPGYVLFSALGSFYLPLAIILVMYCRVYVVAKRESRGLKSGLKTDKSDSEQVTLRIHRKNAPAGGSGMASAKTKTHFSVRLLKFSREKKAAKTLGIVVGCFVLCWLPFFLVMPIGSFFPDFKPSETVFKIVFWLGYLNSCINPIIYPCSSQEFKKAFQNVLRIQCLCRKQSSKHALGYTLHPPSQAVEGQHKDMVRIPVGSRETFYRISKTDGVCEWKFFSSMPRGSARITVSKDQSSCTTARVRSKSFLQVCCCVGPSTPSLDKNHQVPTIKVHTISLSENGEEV

[9] = biological target: T5, Alpha-2A adrenergic receptor (Homo sapiens, UniProt P08913)
T5 sequence (P08913 whole entry): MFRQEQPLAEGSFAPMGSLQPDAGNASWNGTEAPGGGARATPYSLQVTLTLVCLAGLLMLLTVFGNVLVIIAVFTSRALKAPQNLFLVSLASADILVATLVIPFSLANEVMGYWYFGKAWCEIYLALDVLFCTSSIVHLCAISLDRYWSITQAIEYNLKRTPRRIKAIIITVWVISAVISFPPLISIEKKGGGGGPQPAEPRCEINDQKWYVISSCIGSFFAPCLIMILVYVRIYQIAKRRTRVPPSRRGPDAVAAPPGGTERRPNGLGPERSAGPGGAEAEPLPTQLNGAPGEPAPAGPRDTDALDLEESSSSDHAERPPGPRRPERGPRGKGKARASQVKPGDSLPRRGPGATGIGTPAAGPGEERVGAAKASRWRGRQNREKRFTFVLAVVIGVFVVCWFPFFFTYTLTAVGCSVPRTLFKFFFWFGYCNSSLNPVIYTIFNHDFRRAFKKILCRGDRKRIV

[10] = biological target: D(3) dopamine receptor (Homo sapiens, UniProt P35462)
Sequence of D(3) dopamine receptor (P35462 whole entry): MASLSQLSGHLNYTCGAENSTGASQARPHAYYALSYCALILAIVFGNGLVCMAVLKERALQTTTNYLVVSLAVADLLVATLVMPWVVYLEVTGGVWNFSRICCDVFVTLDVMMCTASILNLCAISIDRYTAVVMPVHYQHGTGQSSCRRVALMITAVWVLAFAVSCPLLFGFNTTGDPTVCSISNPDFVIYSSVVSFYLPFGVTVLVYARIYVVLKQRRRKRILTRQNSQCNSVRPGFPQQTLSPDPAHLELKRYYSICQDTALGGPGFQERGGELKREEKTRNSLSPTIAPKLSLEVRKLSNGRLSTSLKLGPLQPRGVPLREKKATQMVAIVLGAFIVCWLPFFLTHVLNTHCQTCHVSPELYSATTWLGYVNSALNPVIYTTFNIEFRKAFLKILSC

[11] = biological target: 3',5'-cyclic-AMP phosphodiesterase 4A (Homo sapiens, UniProt P27815); assay type: functional
Sequence of 3',5'-cyclic-AMP phosphodiesterase 4A (P27815 whole entry): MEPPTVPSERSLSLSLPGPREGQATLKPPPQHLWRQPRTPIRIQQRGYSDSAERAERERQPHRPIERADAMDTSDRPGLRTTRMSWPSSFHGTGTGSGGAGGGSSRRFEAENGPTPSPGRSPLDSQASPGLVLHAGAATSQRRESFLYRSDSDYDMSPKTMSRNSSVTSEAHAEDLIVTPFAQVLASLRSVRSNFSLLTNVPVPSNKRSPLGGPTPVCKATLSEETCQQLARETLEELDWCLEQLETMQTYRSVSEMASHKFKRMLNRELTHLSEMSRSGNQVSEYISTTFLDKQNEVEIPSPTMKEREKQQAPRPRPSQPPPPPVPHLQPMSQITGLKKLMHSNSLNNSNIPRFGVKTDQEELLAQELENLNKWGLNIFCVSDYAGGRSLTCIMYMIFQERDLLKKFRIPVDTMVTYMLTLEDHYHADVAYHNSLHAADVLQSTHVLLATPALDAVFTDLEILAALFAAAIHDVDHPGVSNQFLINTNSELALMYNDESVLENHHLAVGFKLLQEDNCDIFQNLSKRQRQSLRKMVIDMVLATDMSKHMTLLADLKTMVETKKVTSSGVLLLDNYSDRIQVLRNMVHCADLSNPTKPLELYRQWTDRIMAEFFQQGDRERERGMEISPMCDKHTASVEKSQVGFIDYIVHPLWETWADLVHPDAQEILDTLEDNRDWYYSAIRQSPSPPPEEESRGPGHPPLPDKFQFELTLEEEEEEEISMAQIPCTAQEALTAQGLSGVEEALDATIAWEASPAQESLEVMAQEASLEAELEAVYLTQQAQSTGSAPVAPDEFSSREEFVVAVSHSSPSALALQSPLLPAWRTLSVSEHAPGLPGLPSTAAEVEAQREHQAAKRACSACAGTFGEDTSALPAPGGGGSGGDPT

[12] = biological target: T6, Adenosine receptor A3 (Homo sapiens, UniProt P0DMS8)
T6 sequence (P0DMS8 whole entry): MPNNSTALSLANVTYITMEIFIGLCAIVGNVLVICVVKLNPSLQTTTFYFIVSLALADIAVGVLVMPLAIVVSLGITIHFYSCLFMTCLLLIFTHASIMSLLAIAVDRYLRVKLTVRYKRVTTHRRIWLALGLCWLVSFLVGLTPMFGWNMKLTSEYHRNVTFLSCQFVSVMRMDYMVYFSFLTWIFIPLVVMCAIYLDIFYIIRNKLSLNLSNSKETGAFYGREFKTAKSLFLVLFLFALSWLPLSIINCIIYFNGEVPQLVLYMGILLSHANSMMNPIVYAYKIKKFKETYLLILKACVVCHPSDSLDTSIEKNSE
Also: assay procedure not described here.

Sequence of Prostaglandin G/H synthase 1 (P23219 whole entry): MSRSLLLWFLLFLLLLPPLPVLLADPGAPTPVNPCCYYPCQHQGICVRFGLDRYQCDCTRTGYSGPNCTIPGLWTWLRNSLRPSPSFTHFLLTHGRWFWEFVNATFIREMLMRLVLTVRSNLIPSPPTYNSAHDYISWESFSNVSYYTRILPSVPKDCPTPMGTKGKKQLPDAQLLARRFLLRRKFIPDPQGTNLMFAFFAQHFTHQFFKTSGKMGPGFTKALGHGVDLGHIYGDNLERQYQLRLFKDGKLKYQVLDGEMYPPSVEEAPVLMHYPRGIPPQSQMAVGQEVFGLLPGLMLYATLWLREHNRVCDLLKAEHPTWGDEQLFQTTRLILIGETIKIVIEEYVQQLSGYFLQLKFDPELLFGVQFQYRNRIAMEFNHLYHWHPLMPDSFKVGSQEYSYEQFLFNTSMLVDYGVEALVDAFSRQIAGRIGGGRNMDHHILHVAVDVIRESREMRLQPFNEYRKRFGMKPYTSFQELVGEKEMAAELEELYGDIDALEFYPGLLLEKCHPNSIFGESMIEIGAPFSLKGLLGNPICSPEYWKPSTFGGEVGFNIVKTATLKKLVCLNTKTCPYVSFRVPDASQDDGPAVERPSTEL

SMILES | AC50 [1] | AC50 [2] | AC50 [3] | AC50 [4] | AC50 [5] | AC50 [6] | AC50 [7] | AC50 [8] | AC50 [9] | AC50 [10] | AC50 [11] | AC50 [12]
O=C(OOC(=O)c1ccccc1)c1ccccc1 [BENZOYL PEROXIDE] | > 30 µM | > 30 µM | > 30 µM | > 30 µM | > 30 µM | > 30 µM | > 30 µM | > 30 µM | > 30 µM | > 30 µM | > 30 µM | 
CC(C)(C)NCC(O)COc1ccccc1C#N (centres undefined) [BUNITROLOL] | > 30 µM | 0.0086 µM | > 30 µM | > 30 µM | > 30 µM | > 30 µM | > 30 µM | > 30 µM | 27.1 µM | > 30 µM | > 30 µM | 
CC(=O)Nc1ccc(/C=N/NC(N)=S)cc1 [AMITHIOZONE] | > 30 µM | > 30 µM | > 30 µM |  | > 30 µM | > 30 µM | > 30 µM |  | > 30 µM | > 30 µM | > 30 µM | 
CC(=O)O[C@]1(C(C)=O)CC[C@H]2[C@@H]3CCC4=CC(=O)CCC4=C3[C@@H](c3ccc(N(C)C)cc3)C[C@@]21C [ULIPRISTAL ACETATE] | > 30 µM | > 30 µM | > 30 µM |  | > 30 µM | > 30 µM | > 30 µM | > 30 µM | > 30 µM | > 30 µM | > 30 µM | 
CC(CN(C)C)CN1c2ccccc2CCc2ccccc21 (centres undefined) [TRIMIPRAMINE] | > 30 µM | 20.1 µM | 10.9 µM | 8.9 µM |  |  | > 30 µM |  | 1.27 µM | 0.0178 µM | > 30 µM | > 30 µM
COc1ccc(C(=O)c2ccccc2)c(O)c1 [OXYBENZONE] | > 30 µM | > 30 µM | 16.5 µM | > 30 µM | > 30 µM | > 10 µM | > 30 µM | > 30 µM | > 30 µM | > 30 µM | 18.1 µM | 
OC(CN1CCCCC1)c1cc(-c2ccccc2)on1 (centres undefined) [PERISOXAL] | > 30 µM | > 30 µM | > 30 µM |  | 16.9 µM | > 30 µM | > 30 µM |  | > 30 µM | 15.2 µM | > 30 µM | 
O=NN(CCCl)C(=O)NCCCl [CARMUSTINE] |  | > 30 µM | > 30 µM |  | > 30 µM |  |  | > 30 µM | > 30 µM | > 30 µM |  | 
CC(=O)OC1CN2CCC1CC2 (centres undefined) [ACECLIDINE] | > 30 µM | > 30 µM | > 30 µM |  |  | > 30 µM | > 30 µM |  | > 30 µM | > 30 µM | > 30 µM | 
